Measured values reported in patent publication US5028731A, “Preparation of mixtures of cypermethrin or cyfluthrin isomers enriched in more active species” (FMC Corporation, priority 1989, dated 1991).
≈ marks a conversion by molar mass, not a printed value. Like-named read-outs stand apart in the source and are kept apart here.

Assays:
[1] = system: Tobacco Budworm; assay: Foliar LC50 - Tobacco Budworm; type: in vivo; details: for LC50: Heliothis virescens
Text: This increase in activity is illustrated in Table II in which the test insect is the economically important tobacco budworm.
Foliar LC50 (ppm) - Tobacco Budworm

[2] = well known; c2, t2 pairs compared with c1 (III/IV) and t1 (VII/VIII) pairs; cited from earlier work

With `CC1(C)C(C=C(Cl)Cl)C1C(=O)OC(C#N)c1cccc(Oc2ccccc2)c1` (racemic) [Example 1, (R,S)-(cyano)(3-phenoxyphenyl)methyl cis/trans-3-(2,2-dichloroethenyl)-2,2-dimethylcyclopropanecarboxylate] the LC50 ([1]; Average of Tests 1-3, read-out: Foliar LC50, Average) was 13.2 µg/mL (≈ 31.7 µM), the LC50 ([1]; Test 1, read-out: Foliar LC50) was 8.4 µg/mL (≈ 20.2 µM) and the LC50 ([1]; Test 2, read-out: Foliar LC50) was 18.7 µg/mL (≈ 44.9 µM). For the same compound, the LC50 ([1]; Test 3, read-out: Foliar LC50) was 12.5 µg/mL (≈ 30 µM).
For `CC1(C)C(C=C(Cl)Cl)C1C(=O)OC(C#N)c1cccc(Oc2ccccc2)c1` (racemic) [Example 5, (R,S)-(cyano)(3-phenoxyphenyl)methyl cis/trans-3-(2,2-dichloroethenyl)-2,2-dimethylcyclopropanecarboxylate], the “Foliar LC50, Average” value ([1]; Average of Tests 1-3) was 9.9 ppm, the “Foliar LC50” value ([1]; Test 1) was 6.5 ppm and the “Foliar LC50” value ([1]; Test 2) was 12.3 ppm. The “Foliar LC50” value ([1]; Test 3) was 11.0 ppm.
In the case of `CC1(C)[C@H](C(=O)O[C@H](C#N)c2cccc(Oc3ccccc3)c2)[C@@H]1C=C(Cl)Cl` (relative stereo) [c2 enantiomer pair], the insecticidal activity [2] is given as “more insecticidally active”.
For `CC1(C)[C@H](C=C(Cl)Cl)[C@H]1C(=O)O[C@H](C#N)c1cccc(Oc2ccccc2)c1` (relative stereo) [t2 enantiomer pair], the insecticidal activity [2] is given as “more insecticidally active”.
In the case of `CC1(C)[C@H](C(=O)O[C@H](C#N)c2cccc(Oc3ccccc3)c2)[C@@H]1C=C(Cl)Cl` [I, (S)-(cyano)(3-phenoxyphenyl)methyl 1R,cis-3-(2,2-dichloroethenyl)-2,2-dimethylcyclopropanecarboxylate], the insecticidal activity [2] is listed as “most insecticidally active”.
In the case of `CC1(C)[C@H](C=C(Cl)Cl)[C@H]1C(=O)O[C@H](C#N)c1cccc(Oc2ccccc2)c1` [V], the insecticidal activity [2] is given as “most insecticidally active”.
